Experimental data: the supplement of paper PMC10307832

compound: CCn1c(-c2nonc2N)nc2c(C#CC(C)(C)O)ncc(OC[C@H]3CCCNC3)c21 + Nc1ncn([C@H]2C[C@H](O)[C@@H](CO)O2)c(=O)n1 [Decitabine] (partner 2 µM); test: relative viability (nuclei count vs DMSO), 5 days (fraction); higher = more cells survive; settings: first compound 1 µM
Outline: (§1)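 Each reported value is a median over duplicate plates. It expresses relative viability: treated-well nuclei count divided by vehicle-well nuclei count. Lung cancer cell lines in 1536-well plates were dosed by pin tool a day after seeding, alone with one drug or with a fixed anchor-drug dose plus five library-drug doses (not always all listed) in √10 steps, and nuclei were counted after 5 days.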

Row | Cell Line | relative viability
1 | NCI-H460 | 0.513
2 | NCI-H2347 | 0.605
3 | NCI-H1395 | 0.677
4 | 201T | 0.866
5 | NCI-H1915 | 0.248
6 | HCC-827 | 0.308
7 | LXF-289 | 0.364
8 | NCI-H23 | 0.302
9 | NCI-H647 | 0.371
10 | NCI-H1651 | 0.663
11 | EPLC-272H | 0.356
12 | NCI-H1792 | 0.518
13 | NCI-H1355 | 0.355
14 | NCI-H3122 | 0.414
15 | NCI-H1437 | 0.627
16 | NCI-H1755 | 0.722
17 | HCC-15 | 0.571
18 | NCI-H1793 | 0.503
19 | PC-14 | 0.29
20 | EKVX | 0.337
21 | LC-2-ad | 0.7
22 | NCI-H1944 | 0.448
23 | NCI-H1975 | 0.359
24 | RERF-LC-KJ | 0.656
25 | ABC-1 | 1.02

compound: CCOC1=CC=CC=C1N=NC2=C(NN(C2=O)C3=NC(=CS3)C4=CC=CC=C4)C [BAM7] + O=C(c1cc(Cc2n[nH]c(=O)c3ccccc23)ccc1F)N1CCN(C(=O)C2CC2)CC1 [Olaparib] (partner 8 µM); test: as above; settings: first compound 0.5 µM
Outline: as §1

Row | Cell Line | relative viability
26 | LU99A | 0.272
27 | BEN | 1.2
28 | HARA | 0.96
29 | HCC-78 | 1.02
30 | NCI-H322M | 0.762
31 | LCLC-97TM1 | 0.362
32 | A-427 | 0.707
33 | NCI-H441 | 0.76
34 | NCI-H1734 | 0.57
35 | NCI-H460 | 0.537
36 | NCI-H2347 | 0.588
37 | NCI-H1395 | 0.492
38 | 201T | 0.774
39 | NCI-H1915 | 0.269
40 | HCC-827 | 0.0377
41 | LXF-289 | 1.17
42 | NCI-H23 | 0.374

Row | Cell Line | relative viability
43 | NCI-H647 | 0.711
44 | NCI-H1651 | 0.192
45 | EPLC-272H | 0.465
46 | NCI-H1792 | 0.42
47 | NCI-H1355 | 0.753
48 | NCI-H3122 | 0.428
49 | NCI-H1437 | 0.557
50 | NCI-H1755 | 0.858
51 | HCC-15 | 0.849
52 | NCI-H1793 | 0.926
53 | PC-14 | 0.305
54 | EKVX | 0.863
55 | LC-2-ad | 0.676
56 | NCI-H1944 | 0.345
57 | NCI-H1975 | 0.498
58 | RERF-LC-KJ | 0.346
59 | ABC-1 | 0.765

same assay, conditions: first compound 5 µM

Row | Cell Line | relative viability
60 | LU99A | 0.257
61 | BEN | 1.09
62 | HARA | 0.838
63 | HCC-78 | 0.759
64 | NCI-H322M | 0.714
65 | LCLC-97TM1 | 0.472
66 | A-427 | 0.736
67 | NCI-H441 | 0.523
68 | NCI-H1734 | 0.664
69 | NCI-H460 | 0.438
70 | NCI-H2347 | 0.642
71 | NCI-H1395 | 0.472
72 | 201T | 0.746
73 | NCI-H1915 | 0.262
74 | HCC-827 | 0.627
75 | LXF-289 | 1.05
76 | NCI-H23 | 0.271
77 | NCI-H647 | 0.67
78 | NCI-H1651 | 0.202
79 | EPLC-272H | 0.935
80 | NCI-H1792 | 0.374
